Experiment: Evaluation of solubility in xylene (visual observation)
Type: physicochemical
Details: stirred by magnetic stirrer 10 minutes, visually observed
With `COCCOCCN1CC2C3=c4c5c6c7c(cc8cc9cc%10cc%11cc%12c%13c(c4c4c5c5c7c8c7c9c%10c8c%11c%13c4c8c75)=C(C3)C%12)CC62C1c1cccc2ccccc12` (stereo not shown) [Fullerene derivative A, N-methoxyethoxyethyl-2-(1-naphthyl)fulleropyrrolidine] the “Solubility of a 1 wt % xylene solution” value was “Dissolved”.
For `COCCOCCN1CC2C3=c4c5c6c7c(cc8cc9cc%10cc%11cc%12c%13c(c4c4c5c5c7c8c7c9c%10c8c%11c%13c4c8c75)=C(C3)C%12)CC62C1c1c(F)c(F)c(F)c(F)c1F` (stereo not shown) [Fullerene derivative B, N-methoxyethoxyethyl-2-(perfluorophenyl)fulleropyrrolidine], the “Solubility of a 1 wt % xylene solution” value was “Dissolved”.
In the case of `COCCOCCN1CC2C3=c4c5c6c7c(cc8cc9cc%10cc%11cc%12c%13c(c4c4c5c5c7c8c7c9c%10c8c%11c%13c4c8c75)=C(C3)C%12)CC62C1CCc1ccccc1` (stereo not shown) [Fullerene derivative G, N-methoxyethoxyethyl-2-(2-phenylethyl)fulleropyrrolidine], the “Solubility of a 1 wt % xylene solution” value was “Dissolved”.
In the case of `COCCOCCN1CC2C3=c4c5c6c7c(cc8cc9cc%10cc%11cc%12c%13c(c4c4c5c5c7c8c7c9c%10c8c%11c%13c4c8c75)=C(C3)C%12)CC62C1c1ccc(C)cc1` (stereo not shown) [Fullerene derivative D, N-methoxyethoxyethyl-2-(4-methylphenyl)fulleropyrrolidine], the “Solubility of a 1 wt % xylene solution” value was “Dissolved”.
With `COCCOCCN1CC2C3=c4c5c6c7c(cc8cc9cc%10cc%11cc%12c%13c(c4c4c5c5c7c8c7c9c%10c8c%11c%13c4c8c75)=C(C3)C%12)CC62C1c1ccccc1` (stereo not shown) [Fullerene derivative E, N-methoxyethoxyethyl-2-phenyl-fulleropyrrolidine] the “Solubility of a 1 wt % xylene solution” value was “Dissolved”.
With `COCCOCCN1CC2C3=c4c5c6c7c(cc8cc9cc%10cc%11cc%12c%13c(c4c4c5c5c7c8c7c9c%10c8c%11c%13c4c8c75)=C(C3)C%12)CC62C1c1ccc(C(F)(F)F)cc1` (stereo not shown) [Fullerene derivative F] the “Solubility of a 1 wt % xylene solution” value was “Dissolved”.
In the case of `COCCOCCN1CC2C3=c4c5c6c7c(cc8cc9cc%10cc%11cc%12c%13c(c4c4c5c5c7c8c7c9c%10c8c%11c%13c4c8c75)=C(C3)C%12)CC62C1c1ccc(F)cc1` (stereo not shown) [Fullerene derivative C, N-methoxyethoxyethyl-2-(4-fluorophenyl) fulleropyrrolidine], the “Solubility of a 1 wt % xylene solution” value was “Dissolved”.

— US20110001093A1, “FULLERENE DERIVATIVE” (SUMITOMO CHEMICAL COMPANY LIMITED, priority 2007, published 2011)
